Test results taken from PMC8222254, “Self-assembly of an anion receptor with metal-dependent kinase inhibition and potent in vitro anti-cancer properties” (Nature Communications, 2021).
Several values for one entry are separate records, joined by “and”; a condition that tells them apart may be missing. Identical values can stand only once. Like-named read-outs stand apart in the source and are kept apart here.

Assays:
Assay in all cases: Chemosensitivity, 96 h continuous exposure, MTT assay
Format in all cases: cell-based, human
MCF10A non-cancer cells = system: MCF10A non-cancer cells
Description: (§1) All cell lines were purchased from and maintained as monolayers as described by the American Type Culture Collection with the exception of the p53^+/+ and p53^−/− isogenic clones of HCT116 human colorectal adenocarcinoma cells which were a kind gift from Professor Bert Vogelstein[54]. GBM1 cells were established from a primary GBM tumour by Heiko Wurdak and colleagues[32],[33]. Non-cancerous adult brain neural progenitor (NP1) cells were derived from a patient undergoing surgery to treat epilepsy[32],[33]. Cell culture and growth media for NP1 and GBM1 cells were as described[32],[33]. The response of cells following a continuous 96-h exposure to test compounds and platinates was determined using the MTT assay. Potency was recorded as the IC50 and the selectivity index (SI) was defined as the ratio of IC50 values for non-cancer to cancer cell lines with values >1 representing selectivity for cancer cells as opposed to non-cancer cells.
(§2) All cell lines used were maintained at low passage in antibiotic-free media. HT29, DLD-1, HCT116 p53^+/+ and HCT116 p53^−/− are all colorectal adenocarcinoma cell lines derived from different individuals and harbour different combinations of oncogenic lesions (except for the HCT116 isogenic cancer cell clones that are genetically identical except for p53 status). PSN-1, BxPC-3 and MiaPaCa2 are pancreatic carcinoma cell lines and A549 and H460 are lung carcinoma cell lines. HT29, DLD-1, PSN-1, BxPC-3, A549 and H460 cell lines were cultured in RPMI-1640 growth media (Sigma) containing 2 mM L-glutamine, 1 mM sodium pyruvate and 10% foetal bovine serum (FBS). HCT116 (p53^+/+ and p53^−/−) and MiaPaCa2 cell lines were cultured in Dulbecco’s Modified Eagle’s Medium (Sigma), 2 mM L-glutamine and 10% FBS. The ARPE-19 retinal epithelial non-cancer cell line was cultured in DMEM/F12 media (Gibco), 2 mM L-glutamine, 1 mM sodium pyruvate and 10% FBS. The MCF10A non-cancerous human breast epithelial cell line was cultured in Minimal Essential Media Eagle (Sigma), 2 mM L-glutamine, 1 mM sodium pyruvate, 10% FBS and 1x non-essential amino acids (NEAA). NP1 and GBM1 cells were cultured on plasticware coated with poly-L-ornithine (5 µg/ml) and laminin (2.4 µg/ml)[32],[33]. NP1 cells were grown in DMEM/F12 media (Gibco) supplemented with 5% FBS, 20 ng/ml hFGF, 20 ng/ml rhEGF, 0.5x B-27 supplement (Gibco), 0.5x N-2 supplement (Gibco) and 1x GLUTAMAX (Gibco). GBM1 cells were cultured in Neurobasal media (Gibco) supplemented with 40 ng/ml hFGF, 40 ng/ml rhEGF, 0.5x B-27 supplement (Gibco) and 0.5x N-2 supplement (Gibco).
(§3) [L2(Metal)3]^6+ and all the other self-assembling complexes were freshly formed by adding DMSO to individual components and mixing together by pipetting. These were then further diluted in cell culture media such that the final DMSO concentration that cells were exposed to was 0.2% (vehicle control). Cisplatin, oxaliplatin and carboplatin were dissolved in phosphate buffered saline. Cell lines were seeded into 96 well plates at 2 × 10^3 cells per well and incubated overnight at 37 °C. GBM1 cancer stem-like cells were seeded at 3 × 10^3 cells per well and NP1 neural progenitors were seeded at 1.5 × 10^3 cells per well. The following day, media was removed and replaced with fresh media containing test compounds at a range of concentrations. Cells were incubated with test compounds for a further 96 h after which the media was removed and replaced with fresh media (200 μl/well). MTT was added (20 μl at 5 mg/ml) and cells were incubated for a further 4 h. Media and MTT were removed and formazan crystals were dissolved in 150 μl of DMSO and the absorbance of the resulting solution determined at 540 nm. Dose response curves were constructed, and the concentration required to reduce cell growth by 50% (IC50) determined.

HCT116 p53+/+ = system: HCT116 p53+/+
Description: as §1, §2, §3

DLD-1 = system: DLD-1
Description: as §1, §2, §3

BxPC3 = system: BxPC3
Description: as §1, §2, §3

A549 = system: A549
Description: as §1, §2, §3

ARPE-19 non-cancer cells = system: ARPE-19 non-cancer cells
Description: as §1, §2, §3

H460 = system: H460
Description: as §1, §2, §3

O=P([O-])([O-])[O-].[Cu+2].[Cu+2].[Cu+2].c1ccc(-c2csc(NCCN(CCNc3nc(-c4ccccn4)cs3)CCNc3nc(-c4ccccn4)cs3)n2)nc1.c1ccc(-c2csc(NCCN(CCNc3nc(-c4ccccn4)cs3)CCNc3nc(-c4ccccn4)cs3)n2)nc1 [[L2Cu3(PO4)]3+]
IC50 (MCF10A non-cancer cells; MCF10A non-cancer, read-out: Mean IC50 values): 49.4 µM
IC50 (MCF10A non-cancer cells; MCF10A, mean of replicates, read-out: Mean IC50): 49.4 µM
IC50 (MCF10A non-cancer cells; MCF10A, single replicate, read-out: IC50 values for each replicate): 46.7 µM and 51 µM and 59.3 µM and 40.6 µM
Relative potency (+ anion to no anion), Ratio + anion:no anion (MCF10A non-cancer cells; ratio of IC50, MCF10A): 1.02
IC50 (HCT116 p53+/+; HCT116 p53+/+, mean of replicates, read-out: Mean IC50): 3.39 µM
IC50 (HCT116 p53+/+; HCT116 p53+/+, read-out: Mean IC50 values): 3.39 µM
IC50 (HCT116 p53+/+; HCT116 p53+/+, single replicate, read-out: IC50 values for each replicate): 5.27 µM and 3.75 µM and 2.15 µM and 2.08 µM and 1.85 µM
Selectivity index (ARPE19) (HCT116 p53+/+; IC50 ARPE-19 / IC50 HCT116 p53+/+): 48.25
Selectivity index (MCF10A) (HCT116 p53+/+; IC50 MCF10A / IC50 HCT116 p53+/+): 14.55
Relative potency (+ anion to no anion), Ratio + anion:no anion (HCT116 p53+/+; ratio of IC50, HCT116 p53+/+): 6.84
Selectivity indices relative to ARPE-19, Ratio + anion:no anion (HCT116 p53+/+; ratio of SI (ARPE-19), HCT116 p53+/+): 0.455
Selectivity indices relative to MCF10A, Ratio + anion:no anion (HCT116 p53+/+; ratio of SI (MCF 10A), HCT116 p53+/+): 0.150
IC50 (DLD-1; DLD-1, mean of replicates, read-out: Mean IC50): 0.637 µM
IC50 (DLD-1; DLD-1, read-out: Mean IC50 values): 0.637 µM
IC50 (DLD-1; DLD-1, single replicate, read-out: IC50 values for each replicate): 0.613 µM and 0.668 µM and 0.654 µM
Selectivity index (ARPE19) (DLD-1; IC50 ARPE-19 / IC50 DLD-1): 257.10
Selectivity index (MCF10A) (DLD-1; IC50 MCF10A / IC50 DLD-1): 77.52
Relative potency (+ anion to no anion), Ratio + anion:no anion (DLD-1; ratio of IC50, DLD-1): 4.83
Selectivity indices relative to ARPE-19, Ratio + anion:no anion (DLD-1; ratio of SI (ARPE-19), DLD-1): 0.645
Selectivity indices relative to MCF10A, Ratio + anion:no anion (DLD-1; ratio of SI (MCF 10A), DLD-1): 0.212
IC50 (BxPC3; BXPC3, mean of replicates, read-out: Mean IC50): 1.68 µM
IC50 (BxPC3; BXPC3, read-out: Mean IC50 values): 1.68 µM
IC50 (BxPC3; BXPC3, single replicate, read-out: IC50 values for each replicate): 0.704 µM and 1.94 µM and 2.09 µM and 2.25 µM and 1.43 µM
Selectivity index (ARPE19) (BxPC3; IC50 ARPE-19 / IC50 BXPC3): 97.37
Selectivity index (MCF10A) (BxPC3; IC50 MCF10A / IC50 BXPC3): 29.36
Relative potency (+ anion to no anion), Ratio + anion:no anion (BxPC3; ratio of IC50, BXPC3): 5.74
Selectivity indices relative to ARPE-19, Ratio + anion:no anion (BxPC3; ratio of SI (ARPE-19), BXPC3): 0.542
Selectivity indices relative to MCF10A, Ratio + anion:no anion (BxPC3; ratio of SI (MCF 10A), BXPC3): 0.178
IC50 (A549; A549, mean of replicates, read-out: Mean IC50): 1.22 µM
IC50 (A549; A549, read-out: Mean IC50 values): 1.22 µM
Selectivity index (ARPE19) (A549; IC50 ARPE-19 / IC50 A549): 134.46
Selectivity index (MCF10A) (A549; IC50 MCF10A / IC50 A549): 40.54
Relative potency (+ anion to no anion), Ratio + anion:no anion (A549; ratio of IC50, A549): 5.23
Selectivity indices relative to ARPE-19, Ratio + anion:no anion (A549; ratio of SI (ARPE-19), A549): 0.595
Selectivity indices relative to MCF10A, Ratio + anion:no anion (A549; ratio of SI (MCF 10A), A549): 0.196
IC50 (ARPE-19 non-cancer cells; ARPE-19, mean of replicates, read-out: Mean IC50): 164 µM
IC50 (ARPE-19 non-cancer cells; ARPE-19, single replicate, read-out: IC50 values for each replicate): 144 µM and 157 µM and 173 µM and 182 µM
IC50 (ARPE-19 non-cancer cells; ARPE-19 non-cancer, read-out: Mean IC50 values): 164 µM
Relative potency (+ anion to no anion), Ratio + anion:no anion (ARPE-19 non-cancer cells; ratio of IC50, ARPE-19): 3.11
IC50 (H460; H460, mean of replicates, read-out: Mean IC50): 1.41 µM
IC50 (H460; H460, read-out: Mean IC50 values): 1.41 µM
IC50 (H460; H460, single replicate, read-out: IC50 values for each replicate): 592 nM and 533 nM and 1.4 µM and 2.22 µM and 504 nM and 1.98 µM (2×) and 2.1 µM
Selectivity index (ARPE19) (H460; IC50 ARPE-19 / IC50 H460): 115.82
Selectivity index (MCF10A) (H460; IC50 MCF10A / IC50 H460): 34.92
Relative potency (+ anion to no anion), Ratio + anion:no anion (H460; ratio of IC50, H460): 5.12
Selectivity indices relative to ARPE-19, Ratio + anion:no anion (H460; ratio of SI (ARPE-19), H460): 0.607
Selectivity indices relative to MCF10A, Ratio + anion:no anion (H460; ratio of SI (MCF 10A), H460): 0.200
